Experimental data reported in US6387909B1, “Thienopyranecarboxamide derivatives” (Recordati S.A. Chemical and Pharmaceutical Company, priority 1999, dated 2002).

Legend:
diastolic blood pressure = assay: Blood pressure in anaesthetized dogs after intravenous administration; format: in vivo; conditions: dog, i.v.
Method: (§1) The experiments were performed according to the method of Imagawa et al. (J. Pharmacol. Methods, 22:103-111, 1989), with substantial modifications, as follows: adult male beagle dogs, weighing 8-10 kg, were anaesthetized with pentobarbital sodium (30 mg/kg i.v. and 2 mg/kg/h i.v.), intubated and spontaneously ventilated with room air. In order to monitor systemic blood pressure (BP), a polyethylene (PE) catheter was introduced into the aortic arch through the left femoral artery. A collateral of the left femoral vein was cannulated for infusion of anaesthetic, and the right femoral vein was cannulated for administration of compounds. For intraarterial (i.a.) injection of noradrenaline (NA), a PE catheter was introduced into the lower portion of the abdominal aorta via the right external iliac artery. Through such procedure, NA was selectively distributed to the lower urinary tract. A paramedian vertical suprapubic incision extending from the base of the pelvis to the mid-abdominal region was made and the bladder and the prostate were exposed. The bladder was manually emptied with a syringe. Prostatic urethral pressure was monitored with a Mikro-tip catheter (5F) introduced into the bladder via the external urethral meatus, and withdrawn until the pressure transducer was positioned in the prostatic region of the urethra. A ligature was secured between the neck of the bladder and urethra to isolate the response of the latter and to avoid any interaction with the bladder. Another ligature was put around the Mikro-tip catheter at the external meatus, to secure the catheter itself.
(§2) After a stabilizing period following the surgical procedure (30 minutes), in which arterial and prostatic urethral pressures were continuously monitored as basal values, i.a. administration of NA was made at intervals of 20 minutes.
(§3) The NA doses were chosen to produce an increase of at least 100% in urethral pressure. The test compounds were administered intravenously in a cumulative manner with intervals of 15-20 minutes between administrations. […]

[1] = molecular target: T1, recombinant α1a-adrenoceptor (Homo sapiens, UniProt P35348); assay: Radioligand binding ([3H]prazosin) to cloned α1a adrenoceptor; conditions: read-out: Affinity (Ki) α1a
T1 construct: expressed in transfected cells
T1 sequence (P35348 1-466): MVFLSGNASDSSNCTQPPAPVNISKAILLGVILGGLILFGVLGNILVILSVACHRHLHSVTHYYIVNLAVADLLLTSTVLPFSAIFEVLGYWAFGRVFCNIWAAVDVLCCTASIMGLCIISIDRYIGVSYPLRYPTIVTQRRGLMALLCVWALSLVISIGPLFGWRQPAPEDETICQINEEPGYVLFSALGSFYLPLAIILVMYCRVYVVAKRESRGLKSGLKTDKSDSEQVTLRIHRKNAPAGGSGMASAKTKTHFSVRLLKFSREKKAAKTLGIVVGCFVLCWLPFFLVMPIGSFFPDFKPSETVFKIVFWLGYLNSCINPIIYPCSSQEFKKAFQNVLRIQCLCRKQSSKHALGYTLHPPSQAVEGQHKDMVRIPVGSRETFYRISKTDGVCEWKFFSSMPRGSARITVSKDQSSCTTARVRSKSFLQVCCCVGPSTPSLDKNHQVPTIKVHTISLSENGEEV
Method: (§4) Determination of affinity for cloned subtypes of the α1-adrenoceptor was performed in membranes from cells transfected by electroporation with DNA expressing the genes encoding each α1-adrenoceptor subtype.
(§5) Non-specific binding was determined in the presence of 10 μM phentolamine. Incubation was stopped by addition of ice-cold Tris buffer and rapid filtration through Schleicher & Schuell GF52 filters that had been pretreated with 0.2%-polyethyleneimine.
(§6) Data were expressed as mean of Ki.

[2] = molecular target: T2, human 5-HT1A-serotoninergic receptor (Homo sapiens, UniProt P08908); assay: Radioligand binding ([3H]8-OH-DPAT) to cloned 5-HT1A receptor in HeLa cell membranes; conditions: read-out: Affinity (Ki) 5-HT1A
T2 construct: expressed in transfected cells; host or cells: HeLa
T2 sequence (P08908 1-422): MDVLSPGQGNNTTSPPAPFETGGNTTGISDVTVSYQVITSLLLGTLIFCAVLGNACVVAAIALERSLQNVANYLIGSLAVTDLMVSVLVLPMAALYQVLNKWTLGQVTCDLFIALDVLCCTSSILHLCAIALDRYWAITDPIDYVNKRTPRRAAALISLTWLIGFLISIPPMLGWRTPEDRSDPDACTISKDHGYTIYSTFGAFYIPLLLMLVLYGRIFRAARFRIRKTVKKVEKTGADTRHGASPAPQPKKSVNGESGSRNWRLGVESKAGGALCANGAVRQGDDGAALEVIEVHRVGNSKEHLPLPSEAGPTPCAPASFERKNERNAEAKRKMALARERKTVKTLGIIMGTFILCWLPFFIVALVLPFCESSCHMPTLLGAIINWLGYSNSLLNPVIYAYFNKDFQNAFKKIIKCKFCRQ
Method: HeLa cells were grown as monolayers in Dulbecco's modified Eagle's medium (DMEM), supplemented with 10% fetal calf serum and gentamicin (100 μg/mL), at 37° C. in 5% CO2. The cells were detached from the growth flask at 95% confluence by a cell scraper and were lysed in a buffer containing ice cold 5 mM Tris, 5 mM EDTA (pH 7.4). The homogenates were centrifuged at 40,000×g for 20 minutes and the membranes were resuspended in a small volume of ice-cold buffer containing 5 mM Tris and 5 mM, EDTA (pH 7.4), and immediately frozen and stored at −70° C. until use.
Non-specific binding was determined in the presence of 10 μM 5-HT. Incubation was stopped by addition of ice-cold Tris buffer and rapid filtration through Schleicher & Schuell GF52 filters that had been pretreated with 0.2%-polyethyleneimine.
as §6

[3] = molecular target: T3, recombinant α1b-adrenoceptor (Homo sapiens, UniProt P35368); assay: Radioligand binding ([3H]prazosin) to cloned α1b adrenoceptor; conditions: read-out: Affinity (Ki) α1b
T3 construct: expressed in transfected cells
T3 sequence (P35368 1-520): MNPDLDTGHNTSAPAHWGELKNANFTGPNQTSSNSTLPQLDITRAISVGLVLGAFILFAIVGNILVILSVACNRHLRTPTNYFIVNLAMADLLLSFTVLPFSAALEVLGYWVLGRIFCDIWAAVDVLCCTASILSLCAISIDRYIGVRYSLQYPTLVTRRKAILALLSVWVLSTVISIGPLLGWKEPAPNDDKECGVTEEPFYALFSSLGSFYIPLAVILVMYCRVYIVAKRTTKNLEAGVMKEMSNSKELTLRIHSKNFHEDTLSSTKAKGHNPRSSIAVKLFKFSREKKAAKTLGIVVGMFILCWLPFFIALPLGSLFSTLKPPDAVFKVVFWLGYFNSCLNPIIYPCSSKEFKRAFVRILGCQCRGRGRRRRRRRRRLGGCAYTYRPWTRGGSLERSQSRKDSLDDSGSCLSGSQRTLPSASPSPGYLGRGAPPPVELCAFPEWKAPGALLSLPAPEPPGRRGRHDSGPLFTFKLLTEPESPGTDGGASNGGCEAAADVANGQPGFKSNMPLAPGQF
Method: as §4, §5, §6

[4] = tested on: prostatic urethral contractions induced by noradrenaline; assay: Urethral contractions induced by noradrenaline injection in anaesthetized dogs after intravenous administration; format: in vivo; conditions: dog, i.v.
Method: as §1, §2, §3

| Structure (SMILES) | DBP ED25 (dose inducing a 25% decrease in diastolic blood pressure) (diastolic blood pressure) [mg/kg] | Ki [1] [nM] | Ki [2] [nM] | Ki [3] [nM] | UC ID50 NA (dose inhibiting by 50% the urethral contractions induced by noradrenaline) [4] [mg/kg] |
| --- | --- | --- | --- | --- | --- |
| O=C(NCCCN1CCN(c2ccccc2OCC(F)(F)F)CC1)c1csc2c(=O)cc(-c3ccccc3)oc12 [Example 5, 7-Oxo-5-phenyl-N-{3-[4-[2-(2,2,2-trifluoroethoxy)phenyl]-1-piperazinyl]propyl}-7H-thieno[3,2-b]pyran-3-carboxamide] | >1 | 0.045 | 7.59 | 4.34 | 0.0027 |
| COc1ccccc1N1CCN(CCCNC(=O)c2csc3c(=O)cc(-c4ccccc4)oc23)CC1 [Example 2, N-{3-[4-(2-Methoxyphenyl)-1-piperazinyl]propyl}-7-oxo-5-phenyl-7H-thieno[3,2-b]pyran-3-carboxamide] | 0.0355 | 0.1 | 4.48 | 7.52 | 0.0018 |
